Results as given in US20230149351A1, “TREATMENT OF SYMPTOMATIC VIRAL DISEASES” (SYNACT PHARMA ApS, priority 2020, published 2023).

Legend:
[1] = system: Covid-19 induced pulmonary insufficiency; details: 100 mg once daily oral, add-on to standard therapy; 6 patients
Experimental: The initial open label part of the study was conducted in 6 patients referred to hospital with Covid-19 induced pulmonary insufficiency, defined as a need for supplementary oxygen to maintain normal saturation.

melanocytes = details: cited from earlier work
macrophages = details: cited from earlier work
MC3R = details: cited from earlier work
peritonitis = details: oral; cited from earlier work
[2] = system: mouse primary macrophages; details: cited from earlier work
MC1R [3] = target: MC1R (Homo sapiens, UniProt Q01726); details: cited from earlier work
[4] = system: acute peritonitis induced by zymosan A; experiment: Zymosan A induced acute peritonitis in mice (peritoneal cytokines by ELISA, neutrophil counts by flow cytometry); type: in vivo, mice (C57BL/6J); details: 1 mg/kg intraperitoneal 30 minutes before zymosan A, sacrifice twelve hours later, N=6
Experimental: Acute peritonitis was induced by the injection of 1 mg zymosan A (Sigma-Aldrich) i.p. in 0.5 ml sterile PBS in mice. Twelve hours later the mice were sacrificed by CO2 exposure, and peritoneal cavities were washed with 4 ml ice-cold PBS containing 3 mM EDTA. Cells were stained with Turk’s solution (0.01% crystal violet in 3% acetic acid) and counted using a Neubauer hemocytometer or were stained with FITC-conjugated mAb for Ly-6G/Gr1, F4/80, and corresponding isotype controls (eBioscience, Hatfield, U.K.), and subjected to flow-cytometry analysis using a BD FACSCalibur platform (BD Biosciences, Oxford, U.K.).
Levels of IL-1β and IL-6 in quick frozen samples were quantified according to the manufacturer’s instructions using ELISA Ready-SET-Go! (eBioscience).
All animal studies were approved by and performed under the guidelines of the Ethical Committee for the Use of Animals, Barts and The London School of Medicine and Home Office regulations (Guidance on the Operation of Animals, Scientific Procedures Act, 1986). Male (7-8 wk old) C57BL/6J wild-type (WT) mice were purchased from Charles River Laboratories.
Test Item A, 1 mg/kg or vehicle treatment were given intraperitoneal 30 minutes before induction of the acute peritonitis. N=6 for in both groups.

[5] = system: experimental inflammatory arthritis; details: oral; cited from earlier work
MC1R [6] = details: cited from earlier work

Chain of MC1R (Homo sapiens, UniProt Q01726) (Q01726 whole entry, species assumed): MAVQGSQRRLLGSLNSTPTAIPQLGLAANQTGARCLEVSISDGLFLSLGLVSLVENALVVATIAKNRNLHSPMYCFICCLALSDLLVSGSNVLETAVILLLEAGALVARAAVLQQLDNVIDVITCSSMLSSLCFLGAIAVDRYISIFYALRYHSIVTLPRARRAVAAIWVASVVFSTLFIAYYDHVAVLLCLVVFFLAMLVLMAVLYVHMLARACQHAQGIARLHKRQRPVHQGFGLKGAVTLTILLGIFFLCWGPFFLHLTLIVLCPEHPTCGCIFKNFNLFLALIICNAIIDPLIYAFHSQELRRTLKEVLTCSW

For `NC(N)=N/N=C/C=C/c1cccn1-c1ccccc1[N+](=O)[O-]` [AP1189, (E)-N-trans-{3-[1-(2-nitrophenyl)-1H-pyrrol-2-yl]-allylidene}-aminoguanidium acetate], the “development of a need for more intensive pulmonary support” value [1] is listed as “none of them developed a need for more intensive pulmonary support”, the safety and tolerability [1] is listed as “safe and well tolerated” and the melanogenesis (melanocytes) is listed as “no melanogenesis was induced”. For the same compound, the cytokine release (macrophages) was “reduce cytokine release”, the “ERK1/2 phosphorylation (MC3R)” value (MC3R) was “cause ERK1/2 phosphorylation” and the “canonical cAMP generation (MC3R)” value (MC3R) was “does not induce canonical cAMP generation”. The “type of agonism at MC3R” value (MC3R) was “biased agonist”, the “anti-inflammatory action in peritonitis” value (peritonitis) was “elicits anti-inflammatory actions” and the “resolution phase of peritonitis” value (peritonitis) was “accelerated the resolution phase”. For the same compound, the efferocytosis [2] was “proefferocytic effect”, the “binding to MC1R” value (MC1R [3]) was “bind the MC1R” and the “reduction of neutrophil accumulation compared to vehicle” value [4] was 70%. For the same compound, the “reduction of levels of pro-inflammatory cytokine IL-1β compared to pretreatment with vehicle” value ([4]; p<0.05 vs vehicle) was 37%, the “reduction of levels of pro-inflammatory cytokine IL-6 compared to pretreatment with vehicle” value ([4]; p<0.05 vs vehicle) was 59% and the “macroscopic and histological parameters of joint disruption” value [5] was “significant reduction”. The “ERK1/2 phosphorylation (MC1R)” value (MC1R [6]) was “cause ERK1/2 phosphorylation”, the “canonical cAMP generation (MC1R)” value (MC1R [6]) was “does not induce canonical cAMP generation” and the “type of agonism at MC1R” value (MC1R [6]) was “biased agonist”.
